Laboratory results: patent US12551562B2, “Methods and compositions for irreversible enzyme inhibition” (TRITERPENOID THERAPEUTICS, INC., priority 2019, dated 2026)

Key:
[1] = biological target: T1, HSA (Homo sapiens, UniProt P02768); experiment: Modification of HSA by triterpenoids, LC-MS/MS of tryptic digests; assay type: binding
T1 construct: contains 585 amino acids (corresponding to 25-609 of P02768); purchased Sigma-Aldrich
Experimental: Triterpenoids were dissolved in DMSO to make up 1 mM stock solutions, followed by dilutions in phosphate buffer (10 mM, pH 7.4) and incubated with recombinant HSA (0.6 mM, 50 μL) in sealed Eppendorf tubes at 37° C. for 16 h. The molar ratios of drug to protein were 0.00001:1, 0.0001:1, 0.001:1, 0.01:1, 0.1:1, and 1:1. Protein was precipitated twice with 9 volumes of ice-cold methanol to remove free drug, resuspended in 50 μL phosphate buffer and then reduced with 10 mM dithiothreitol (15 min) and alkylated with 55 mM iodoacetamide (15 min) at room temperature. The protein was precipitated with methanol once more and finally dissolved in 100 μL 50 mM ammonium hydrogencarbonate, and 165 μg […] of protein was digested with 1.6 μg trypsin overnight at 37° C.
To examine the time-dependent modification of HSA by triterpenoids, 10 μM triterpenoids was incubated with HSA (0.6 mM, 300 μL) at 37° C. Aliquots of 50 μL were removed after 10, 30, 60, and 180 minutes and processed for LC-MS/MS analysis.
(§1) The tryptic peptides were analyzed by a Triple TOF 5600 mass spectrometer (Sciex). […] Sequence coverage was determined using ProteinPilot software, v4.0 and the most recent version of the SwissProt database.

[2] = biological target: T2, recombinant Keap1 (Homo sapiens, UniProt Q14145); experiment: Modification of Keap1 by triterpenoids, LC-MS/MS of tryptic digests; assay type: binding; settings: 100 μM, 16 h
T2 construct: made in house
Experimental: Triterpenoids were dissolved in DMSO to make up 1 mM stock solutions, followed by dilutions in phosphate buffer (10 mM, pH 7.4) and incubated with recombinant Keap1 proteins produced in house at 37° C. for 16 h. The final concentration of triterpenoids was 100 μM. The mixture was then purified by 1D-gel electrophoresis using an established protocol, followed by in gel-digestion. The digests were further purified by C18-ziptiping and analyzed by LC-MS/MS.
(§2) The tryptic peptides were analyzed by a Triple TOF 5600 mass spectrometer (Sciex). Samples were reconstituted in 50 μL 0.1% formic acid (FA) and 2 μL of samples were delivered into the instrument using an Eksigent Nano-LC system mounted with a nanoACQUITY UPLC Symmetry C18 Trap Column and an analytical BEH C18 nanoACQUITY Column (Waters, MA, USA). A NanoSpray III source was fitted with a 10 μm inner diameter PicoTip emitter (New Objective). Samples were loaded in 0.1% formic acid onto the trap, which was then washed with 2% ACN/0.1% FA for 10 min at 2 μL/min before switching in-line with the analytical column. A gradient of 2-50% (v/v) ACN/0.1% (v/v) FA over 90 min was applied to the column at a flow rate of 300 nL/min. […] Sequence coverage was determined using ProteinPilot software, v4.0 and the most recent version of the SwissProt database.

[3] = biological target: T3, LONP protein (Homo sapiens, UniProt P36776); experiment: Modification of LONP by triterpenoids, LC-MS/MS of tryptic digests; assay type: binding; settings: 100 μM, 16 h; lysine (3), cysteine (3), tyrosine (2)
T3 construct: Professor John Letterio (supplied; not a vendor)
T3 sequence (P36776 68-959): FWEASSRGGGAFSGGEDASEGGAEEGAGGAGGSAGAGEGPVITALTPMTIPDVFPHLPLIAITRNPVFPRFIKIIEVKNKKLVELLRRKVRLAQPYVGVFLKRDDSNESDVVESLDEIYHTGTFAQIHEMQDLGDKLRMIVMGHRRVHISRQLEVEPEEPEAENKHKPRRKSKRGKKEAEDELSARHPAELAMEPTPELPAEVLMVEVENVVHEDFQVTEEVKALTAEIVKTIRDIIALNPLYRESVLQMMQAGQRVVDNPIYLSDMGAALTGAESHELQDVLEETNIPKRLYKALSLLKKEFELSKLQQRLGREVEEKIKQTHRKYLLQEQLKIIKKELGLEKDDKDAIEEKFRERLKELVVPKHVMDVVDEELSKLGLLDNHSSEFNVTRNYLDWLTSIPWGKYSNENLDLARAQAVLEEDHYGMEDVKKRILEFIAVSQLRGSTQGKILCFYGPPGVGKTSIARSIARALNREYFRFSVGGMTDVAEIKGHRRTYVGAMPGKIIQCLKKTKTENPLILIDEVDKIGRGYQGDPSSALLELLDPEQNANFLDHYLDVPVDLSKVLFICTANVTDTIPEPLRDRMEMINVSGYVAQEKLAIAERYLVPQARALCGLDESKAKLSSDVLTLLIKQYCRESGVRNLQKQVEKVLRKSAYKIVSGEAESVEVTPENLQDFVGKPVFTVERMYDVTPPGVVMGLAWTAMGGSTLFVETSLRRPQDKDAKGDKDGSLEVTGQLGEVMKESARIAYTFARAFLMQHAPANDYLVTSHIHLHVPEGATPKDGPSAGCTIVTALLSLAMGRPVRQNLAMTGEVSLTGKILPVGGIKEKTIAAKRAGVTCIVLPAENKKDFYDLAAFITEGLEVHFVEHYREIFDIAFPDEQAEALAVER
Experimental: The LONP protein (Professor John Letterio) was first purified by buffer exchange using spin filters (3K MWCO). 10 μg protein was then incubated with CDDO-2P-Im (100 μM) in phosphate buffer (10 mM, pH 7.4) at 37° C. for 16 h. The mixture was then purified by 1D-gel electrophoresis using an established protocol, followed by in gel-digestion. The digests were further purified by C18-ziptiping and analyzed by LC-MS/MS.
as §2

[4] = system: Epstein-Barr virus-transformed B-cell lines; experiment: Modification of B cell intracellular proteins by triterpenoids, proteomics LC-MS/MS; assay type: cell-based, human
Experimental: Epstein-Barr virus-transformed B-cell lines were generated with previously described methods by incubating PBMC with supernatant from the Epstein-Barr virus-producing cell line B9-58. B cells were maintained in F1 medium at 37° C., 5% CO2. Cells were plated into an 8-well plate at a concentration of 1×10^6 cells/ml and treated with triterpenoids at different concentrations (0, 1, 10 μM) for 16 hours. 200 μL cells were then plated (1×10^5 cells/well) into a 96-well plate, [^3H]-thymidine (0.5 μCi/well) was then added and incubated for 16 hours. Cell was harvested and the proliferative responses were measured by [^3H]-thymidine incorporation. For the remaining cells, supernatants were removed for ELISA (TNFα, IL10, and IFNγ) and proteomics analysis. The cells were then washed in PBS and lysed with 2D lysis buffer (40 mM Tris base, 7M urea, 2M thiourea, 4% (w/v) CHAPS, and 1% DTT). Cell lysates were sonicated and centrifuged at 18000 rpm for 20 minutes at […]. Supernatants were collected and the protein concentrations were measured by BCA assay. Proteins were denatured and processed for mass spectrometric analysis.
as §1

[5] = biological target: T4, His-GSTP (Homo sapiens, UniProt P09211); experiment: Modification of His-GSTP by triterpenoids, LC-MS/MS of tryptic digests; assay type: binding
T4 construct: made in house; host or cells: E. coli
Experimental: His-GSTP was expressed in E. coli as described previously. Purified His-GSTP captured on nickel beads was incubated with a range of concentrations of CDDO-Im (50 nM-10 μM) in phosphate buffer, pH 7.4 for 16 h. CDDO-Me (0.5 mM) was used as a positive control. The beads were then washed 5 times with 1000 μL phosphate buffer. The protein was subjected to on-bead tryptic digestion. In brief, a suspension beads in 30 μL of 50 mM ammonium bicarbonate buffer was incubated with 20 ng of trypsin for 16 h at 37° C. and the digest was analyzed by LC-MS/MS.
The tryptic peptides were analyzed by a Triple TOF 5600 mass spectrometer (Sciex). Samples were reconstituted in 50 μL 0.1% formic acid (FA) and 2 μL of samples were delivered into the instrument using an Eksigent Nano-LC system mounted with a nanoACQUITY UPLC Symmetry C18 Trap Column and an analytical BEH C18 nanoACQUITY Column (Waters, MA, USA). A NanoSpray III source was fitted with a 10 μm inner diameter PicoTip emitter (New Objective). Samples were loaded in 0.1% formic acid onto the trap, which was then washed with 2% ACN/0.1% FA for 10 min at 2 μL/min before switching in-line with the analytical column. A gradient of 2-50% (v/v) ACN/0.1% (v/v) FA over 90 min was applied to the column at a flow rate of 300 nL/min. Spectra were acquired automatically in positive ion mode using information-dependent acquisition, using mass ranges of 400-1600 amu in MS and 100-1400 amu in MS/MS. Up to 25 MS/MS spectra were acquired per cycle (approximately 10 Hz) using a threshold of 100 counts per s, with dynamic exclusion for 12 s and rolling collision energy. Sequence coverage was determined using ProteinPilot software, v4.0 and the most recent version of the SwissProt database.

T4 sequence (P09211 whole entry): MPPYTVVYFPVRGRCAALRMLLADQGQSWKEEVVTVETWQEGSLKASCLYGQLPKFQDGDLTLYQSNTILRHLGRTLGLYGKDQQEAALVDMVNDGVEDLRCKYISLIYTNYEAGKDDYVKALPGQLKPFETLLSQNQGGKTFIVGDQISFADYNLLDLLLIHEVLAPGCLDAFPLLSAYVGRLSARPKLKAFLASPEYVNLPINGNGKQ
T1 sequence (P02768 25-609): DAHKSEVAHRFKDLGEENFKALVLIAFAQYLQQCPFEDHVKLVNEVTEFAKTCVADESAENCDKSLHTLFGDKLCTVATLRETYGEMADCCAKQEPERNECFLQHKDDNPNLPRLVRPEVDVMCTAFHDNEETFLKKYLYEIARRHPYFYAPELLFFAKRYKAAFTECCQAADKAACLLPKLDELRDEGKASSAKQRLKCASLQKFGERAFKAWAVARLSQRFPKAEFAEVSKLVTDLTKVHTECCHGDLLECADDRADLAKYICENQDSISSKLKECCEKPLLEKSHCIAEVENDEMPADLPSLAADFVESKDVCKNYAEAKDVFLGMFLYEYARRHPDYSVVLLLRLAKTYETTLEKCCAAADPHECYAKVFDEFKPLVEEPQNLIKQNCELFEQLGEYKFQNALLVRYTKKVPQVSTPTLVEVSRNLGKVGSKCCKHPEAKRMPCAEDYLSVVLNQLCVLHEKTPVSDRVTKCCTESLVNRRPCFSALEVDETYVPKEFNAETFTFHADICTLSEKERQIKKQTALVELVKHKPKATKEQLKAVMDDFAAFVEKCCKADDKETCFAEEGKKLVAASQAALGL
T2 sequence (Q14145 whole entry): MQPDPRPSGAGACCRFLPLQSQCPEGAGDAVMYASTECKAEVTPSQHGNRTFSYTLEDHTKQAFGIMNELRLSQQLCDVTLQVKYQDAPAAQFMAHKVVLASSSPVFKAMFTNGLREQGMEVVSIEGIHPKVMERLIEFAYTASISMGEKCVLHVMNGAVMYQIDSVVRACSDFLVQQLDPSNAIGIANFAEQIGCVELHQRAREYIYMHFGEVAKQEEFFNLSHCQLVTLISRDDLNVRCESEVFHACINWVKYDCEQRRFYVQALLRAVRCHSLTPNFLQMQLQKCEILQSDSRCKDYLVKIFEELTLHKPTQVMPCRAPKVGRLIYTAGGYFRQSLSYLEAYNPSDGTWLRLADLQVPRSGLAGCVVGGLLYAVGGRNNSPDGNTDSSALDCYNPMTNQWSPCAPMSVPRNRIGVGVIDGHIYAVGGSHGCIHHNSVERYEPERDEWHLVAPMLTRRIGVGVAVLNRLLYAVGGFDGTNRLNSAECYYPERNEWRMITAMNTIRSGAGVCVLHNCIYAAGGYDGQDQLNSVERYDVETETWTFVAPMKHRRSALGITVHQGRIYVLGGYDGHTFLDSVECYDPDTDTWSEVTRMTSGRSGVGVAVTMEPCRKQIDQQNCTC

number of CDDO-modified HSA peptides ([1]; 500 μM, 16 h, lysine (9), arginine (2), serine (7), tyrosine (5))	modification of Cys151 of Keap1 [2]	number of binding sites identified on Keap1 ([2]; phosphate buffer pH 7.4)	number of modified LONP peptides [3]	covalent binding to GSTP, dependence on concentration ([5]; 16 hour incubation at 37° C.)	plateau of binding to GSTP ([5]; in comparison to CDDO-Im, 16 hour incubation at 37° C., FIG. 1C/1D)	preferred binding site on GSTP ([5]; increasing drug concentrations, 16 hour incubation at 37° C., FIG. 1D)	modification of HSA, dependence on concentration and time ([1]; normalized ion counts of modified peptides)	lowest concentration at which adducts with GSTP were detectable ([5]; phosphate buffer pH 7.4, 16 h, 50 nM-10 μM tested) [nM]	site of the simple Michael adduct (CDDO carboxylate, +491.5 amu) on GSTP ([5]; tryptic digests of treated GSTP)	Structure (SMILES)	number of modified B cell proteins identified ([4]; 10 μM for 16 hours)	modification of the 4 active cysteine residues of PPIA ([4]; B cells treated with 10 μM for 16 hours)
23	not detected	8	8	bind to GSTP in a similar manner	binding does not plateau above 5 μM	Cys48	–	–	–	CC1(C)CC[C@]2(C(=O)n3cnc(-c4ccccn4)c3)CC[C@]3(C)[C@H](C(=O)C=C4[C@@]5(C)C=C(C#N)C(=O)C(C)(C)[C@@H]5CC[C@]43C)[C@@H]2C1 [CDDO-2P-Im, 1-[2-Cyano-3,12-dioxooleana-1,9(11)-dien-28-oyl]-4(-pyridin-2-yl)-1H-imidazole]	32	all modified
–	–	–	–	concentration-dependent	–	–	concentration- and time-dependent	50	only detected on Cys48	CC1(C)CC[C@]2(C(=O)n3ccnc3)CC[C@]3(C)[C@H](C(=O)C=C4[C@@]5(C)C=C(C#N)C(=O)C(C)(C)[C@@H]5CC[C@]43C)[C@@H]2C1 [CDDO-Im, 1-(2-cyano-3,12-dioxooleana-1,9(11)-dien-28-oyl) imidazole]	–	–
